Measurements reported in US11479536B1 (King Abdulaziz University, priority 2022, dated 2022).
≈ marks a conversion by molar mass, not a printed value.

Experiments:
[1] = test system: T47D cell line; assay: Cytotoxic assay (MTT) in monolayer model, T47D; assay type: cell-based; conditions: Homo sapiens, 48 h, read-out: IC50 cytotoxic assay against T47D, monolayer
Procedure: 1×10^6 cells of the human breast cancer cell lines MCF7 and T47D were seeded and grown at 37° C. with 5% CO2, in a Dulbecco's Modified Eagle Medium (DMEM) with 10% fetal bovine serum (Sigma). The cells were maintained until they reached the confluence over 90%. Then, the cells were subjected to the different treatment conditions before performing the assays.
The cytotoxic effects of MAK compounds were assessed against MCF7 and T47D cell lines using MTT cell viability assay. The cells were treated for 48 hours with different concentrations of each MAK compound and the control cells were subjected to the vehicle (0.1% DMSO). Then, 10% of 5 mg/mL MTT was added to each well containing treated or control cells, and mixture was incubated at 37° C. for 3 hours. After that, the MTT-containing media was replaced with 100 μL DMSO and incubated for 10 minutes at room temperature before measuring the absorbance for each well at 570 nm. According to the measured absorbance, the IC50 was calculated for each compound. All the experiments were performed in biological and experimental replicates.

[2] = Maximum kinetic aqueous solubility; assay type: physicochemical; conditions: phosphate buffer with 2% DMSO, kinetic from dmso stock, 2% DMSO/PBS, pH 7.4, read-out: maximum kinetic aqueous solubility (saturation)
Procedure: Solubility assays were performed using Millipore MultiScreen® HTS-PFC Filter Plates designed for solubility assays (EMD Millipore, Billerica, Mass.). Assays were run in triplicate. The 96-well plates consist of two chambers separated by a filter. Liquid handling was performed using JANUS® Verispan and MTD workstations (Perkin Elmer, Waltham, Mass.). 4 μL of MAK-1 or MAK-6 solution (10 mM in DMSO) was added to 196 μL of phosphate buffer (45 mM potassium phosphate, 45 mM sodium acetate, 45 mM ethanolamine, pH=7.4) in the top chamber to give a final DMSO concentration of 2% and a theoretical drug concentration of 200 μM. Plates were gently shaken for 90 min and then subjected to vacuum. Insoluble drug is captured on the filter. 160 μL of the filtrate is transferred to 96-well Griener UV Star® analysis plates (Sigma-Aldrich, St. Louis, Mo.) containing 40 μL of acetonitrile. The test compound concentration in the filtrate is measured by UV absorbance on a Spectromax® Plus microplate reader (Molecular Devices, Sunnyvale, Calif.) using Softmax Pro software v.5.4.5. Absorbances at 5 wavelengths (280, 300, 320, 340, and 360 nm) were summed to generate the UV signal. Standard curves were generated by adding 4 μL of five concentrations of test compound in DMSO to 40 μL of acetonitrile in UV Star plates followed by 156 μL of the appropriate solubility medium. […]

[3] = test system: HL60 cell line; assay: Cell viability assay of HL60 cell line (CellTiter-Blue); assay type: cell-based, human; conditions: HL60, 48 h incubation; read-out: IC50 against leukemia cell lines HL60
Procedure: HL60, K562, MV4-11 and NB4 were purchased from CLS Cell Line Service GmbH (Eppelheim, Germany). All cell lines were cultured in RPMI-1640 medium supplemented with 10% fetal bovine serum (FBS) (Thermo Fisher Scientific) and 0.1% ciprofloxacin (2.5 mg/ml; Cipla Limited; Mumbai, India), and were maintained at 37° C. in the presence of 21% O2 and 5% CO2.
Cell viability was determined using the CellTiter®-Blue Cell Viability Assay kit (Promega, Madison, Wis., USA). Approximately 10^4 cells were counted and plated in a 96-well plate in the presence of test compounds ranging from 0.01 to 10 or 20 μM in triplicate and were incubated for 48 h at 37° C. in a humidified incubator. After the incubation period was complete, 20 μL of CellTiter®-Blue Cell Viability Assay reagent was added to each well and incubated for additional 2 h for the development of florescence. Florescence was measured at Ex/Em 540/590 on SpectraMax® i3 Multi-Mode microplate reader (Molecular Devices, LLC; San Jose, Calif., USA) and plotted against drug concentration to determine the IC50 of the test compounds. The IC50 was obtained by non-linear regression model using GraphPad Prism 6.07 (GraphPad Software, Inc, USA).

[4] = Stability in mouse liver microsomes; assay type: in vitro ADME
Procedure: Both mouse and human liver microsomes were obtained from Merck KGaA, (Darmstadt, Germany), Cat. No. M9441 (Mouse liver microsomes) and M0317 (Human liver microsomes). Assays were conducted in triplicate in 96-deep well polypropylene plates. […] At five time points, reaction mixture aliquots were transferred to 96-shallow well stop plates on ice containing acetonitrile with 0.1 μM propafenone. […] Standard curves for test compound were generated using 5 concentrations in triplicate that were processed as above but with zero incubation time. Stop plates were centrifuged at 2000 g for 10 min and then supernatant aliquots were transferred to a Waters Aquity® UPLC 700 μL 96-well sample plate with cap mat (Waters, Milford, Mass.). The amount of compound remaining in the supernatant was quantified by LC/MS/MS using a Waters Xevo TQ MS (electrospray positive mode) coupled to a Waters Aquity® UPLC (BEH column, C18). Propafenone was used as the internal standard. GraphPad® Prism v 5.04 was used for nonlinear fitting of time course data to generate t1/2 values.

[5] = Stability in mouse plasma; assay type: in vitro ADME; conditions: 37° C., duration of the assay (5 h)
Procedure: The assay is conducted at 37° C. in triplicate. Test compounds or procaine (positive control) are tested at a final concentration of 1 μM in either 2.5% DMSO/CD-1 mouse plasma (Innovative Research, Novi, Mich.; sodium heparin added as anticoagulant; pH adjusted to 7.4 with 2N HCl on day of use) or 2.5% DMSO/PBS (pH 7.4: 136.9 mM NaCl, 2.68 mM KCl, 8.1 mM Na2HPO4, 1.47 mM KH2PO4, 0.9 mM CaCl2, 0.49 mM MgCl2). At seven time points, reaction mixture aliquots were transferred to 96-shallow well stop plates on ice containing acetonitrile with 0.1 μM propafenone. Samples were analyzed by LC/MS/MS on a Waters Xevo TQ instrument as described above using positive electrospray ionization. Assay acceptance criteria was 20% for all standards and 25% for the LLOQ. GraphPad® Prism v. 5.04 was used for nonlinear fitting of data to generate t1/2 values.

## O=C(Cc1ccc(NC(=O)c2cccc(Cl)c2)cn1)NCc1ccccc1 [MAK-6, N-(6-(2-(benzylamino)-2-oxoethyl)pyridin-3-yl)-3-chlorobenzamide]
[1]
  IC50: 1.2 nM
[2]
  solubility kinetic at 90 min: 3.7 µM (≈ 1.41 µg/mL)

## COc1cccc(C(=O)Nc2ccc(CC(=O)NCc3ccccc3)cc2)c1 [MAK-1, N-(4-(2-(benzylamino)-2-oxoethyl)phenyl)-3-methoxybenzamide]
[3]
  IC50: 3270 ± 150 nM
[2]
  solubility kinetic at 90 min: 9.4 µM (≈ 3.52 µg/mL)
[4]; lacking NADPH
  loss of compound in mouse liver microsomes: non-significant loss
[4]; male, CD-1, mouse, pooled liver microsomes, in the presence of NADPH, 37° C., read-out: stability to oxidative metabolism in mouse liver microsomes (t1/2)
  half-life: 35 min
[5]
  stability in mouse plasma: stable
